Laboratory results reported in patent US12503475B2 (Centessa Pharmaceuticals (UK) Limited, priority 2020, dated 2025).
Several values for one entry are separate records, joined by “and”; a condition that tells them apart may be missing. Equal entries are not always repeated. Where two headings read alike, the source gives them in different places.

Target: T1, human orexin type 2 receptor (hOX2R) (Homo sapiens, UniProt O43614)
T1 construct: expressed in transfected cells
T1 sequence (O43614 1-444): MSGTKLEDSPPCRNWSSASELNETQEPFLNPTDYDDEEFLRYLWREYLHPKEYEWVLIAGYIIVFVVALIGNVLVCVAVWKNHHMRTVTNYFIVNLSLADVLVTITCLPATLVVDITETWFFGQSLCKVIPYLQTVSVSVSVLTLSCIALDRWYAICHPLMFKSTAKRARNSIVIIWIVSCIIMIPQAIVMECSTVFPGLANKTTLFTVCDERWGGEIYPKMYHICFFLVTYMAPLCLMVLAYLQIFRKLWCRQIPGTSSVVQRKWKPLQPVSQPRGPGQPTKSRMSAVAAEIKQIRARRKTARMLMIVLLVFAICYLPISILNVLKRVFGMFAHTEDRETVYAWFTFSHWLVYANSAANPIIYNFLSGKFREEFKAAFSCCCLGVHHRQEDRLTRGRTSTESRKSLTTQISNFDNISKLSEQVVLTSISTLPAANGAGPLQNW
Experiment: Measurement of orexin type 2 receptor agonist activity (FLIPR calcium fluorescence)
Type: cell-based
Conditions: for EC50: read-out: hOx2 pEC50 (converted); for Emax: CHO, read-out: hOx2 Emax (%)
In short: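 Agonism was read as fluorescence in cells stably expressing human OX2R. E. is the response at 10 μM relative to orexin A as full agonist (100%).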

[1] = CHO cells expressing hOX2R, FLIPR calcium fluorescence

Row | Compound | EC50 [1] | Emax [1] [%] | Emax [%]
1 | O=C([C@H](O)C(F)(F)F)N1CC2(CC2)[C@H](NS(=O)(=O)CF)[C@@H]1Cc1cccc(-c2ccccc2)c1 [Compound 94, N-((6S,7S)-6-([1,1′-biphenyl]-3-ylmethyl)-5-((S)-3,3,3-trifluoro-2-hydroxypropanoyl)-5-azaspiro[2.4]heptan-7-yl)-1-fluoromethanesulfonamide] | 1 to 10 nM | 90 to 100 | 
2 | CS(=O)(=O)N[C@@H]1[C@H](Cc2cccc(-c3ccccc3)c2F)N(C(=O)NCC2(F)CC2)CC12CC2 [Compound 104, (6S,7S)-6-((2-fluoro-[1,1′-biphenyl]-3-yl)methyl)-N-((1-fluorocyclopropyl)methyl)-7-(methylsulfonamido)-5-azaspiro[2.4]heptane-5-carboxamide] | 1 to 10 nM | 90 to 100 | 
3 | C[C@]1(C(=O)N2CC3(CC3)[C@H](NS(=O)(=O)CF)[C@@H]2Cc2cccc(-c3ccccc3)c2F)CCO1 [Compound 202, 1-fluoro-N-((6S,7S)-6-((2-fluoro-[1,1′-biphenyl]-3-yl)methyl)-5-((R)-2-methyloxetane-2-carbonyl)-5-azaspiro[2.4]heptan-7-yl)methanesulfonamide] | 1 to 10 nM | 90 to 100 | 
4 | CS(=O)(=O)N[C@@H]1[C@H](Cc2cccc(-c3ccccc3)c2F)N(C(=O)NCCCF)CC12CC2 [Compound 79, (6S,7S)-6-((2-fluoro-[1,1′-biphenyl]-3-yl)methyl)-N-(3-fluoropropyl)-7-(methylsulfonamido)-5-azaspiro[2.4]heptane-5-carboxamide] | 1 to 10 nM | 90 to 100 | 
5 | O=C([C@H](O)C(F)(F)F)N1CC2(CC2)[C@H](NS(=O)(=O)CF)[C@@H]1Cc1cccc(-c2ccccc2)c1F [Compound 98, 1-fluoro-N-((6S,7S)-6-((2-fluoro-[1,1′-biphenyl]-3-yl)methyl)-5-((S)-3,3,3-trifluoro-2-hydroxypropanoyl)-5-azaspiro[2.4]heptan-7-yl)methanesulfonamide] | 1 to 10 nM | 90 to 100 | 
6 | O=C([C@H]1CCO1)N1CC2(CC2)[C@H](NS(=O)(=O)N2CCC2)[C@@H]1Cc1cccc(-c2ccccc2)c1 [Compound 76, N-((6S,7S)-6-([1,1′-biphenyl]-3-ylmethyl)-5-((R)-oxetane-2-carbonyl)-5-azaspiro[2.4]heptan-7-yl)azetidine-1-sulfonamide] | 10 to 100 nM | 90 to 100 | 
7 | COC1CN(C(=O)N2CC3(CC3)[C@H](NS(=O)(=O)N(C)C)[C@@H]2Cc2cccc(-c3ccccc3)c2F)C1 [Compound 118, N-((6S,7S)-6-((2-fluoro-[1,1′-biphenyl]-3-yl)methyl)-5-(3-methoxyazetidine-1-carbonyl)-5-azaspiro[2.4]heptan-7-yl)-N,N-dimethylsulfuric diamide] | 1 to 10 nM | 90 to 100 | 
8 | CS(=O)(=O)N[C@@H]1[C@H](Cc2cccc(-c3cccc(F)c3)c2F)N(C(=O)N2CCC2)CC12CC2 [Compound 27, N-((6S,7S)-5-(azetidine-1-carbonyl)-6-((2,3′-difluoro-[1,1′-biphenyl]-3-yl)methyl)-5-azaspiro[2.4]heptan-7-yl)methanesulfonamide] | 1 to 10 nM and 0.0794 to 1 nM | 90 to 100 | 
9 | O=C([C@H]1CCO1)N1CC2(CC2)[C@H](NS(=O)(=O)C(F)F)[C@@H]1Cc1cccc(-c2ccccc2F)c1F [Compound 163, N-((6S,7S)-6-((2,2′-difluoro-[1,1′-biphenyl]-3-yl)methyl)-5-((R)-oxetane-2-carbonyl)-5-azaspiro[2.4]heptan-7-yl)-1,1-difluoromethanesulfonamide] | 1 to 10 nM | 90 to 100 | 
10 | O=C([C@H]1CCO1)N1CC2(CC2)[C@H](NS(=O)(=O)N2CCCC2)[C@@H]1Cc1cccc(-c2ccccc2)c1 [Compound 96, N-((6S,7S)-6-([1,1′-biphenyl]-3-ylmethyl)-5-((R)-oxetane-2-carbonyl)-5-azaspiro[2.4]heptan-7-yl)pyrrolidine-1-sulfonamide] | 10 to 100 nM | 80 to 90 | 
11 | CC(C)(O)C(=O)N1CC2(CC2)[C@H](NS(C)(=O)=O)[C@@H]1Cc1cccc(-c2cc(F)cc(F)c2)c1F [Compound 34, N-((6S,7S)-5-(2-hydroxy-2-methylpropanoyl)-6-((2,3′,5′-trifluoro-[1,1′-biphenyl]-3-yl)methyl)-5-azaspiro[2.4]heptan-7-yl)methanesulfonamide] | 1 to 10 nM | 90 to 100 | 
12 | O=C([C@@H](O)C1CC1)N1CC2(CC2)[C@H](NS(=O)(=O)C(F)F)[C@@H]1Cc1cccc(-c2ccccc2)c1F [Compound 170, N-((6S 7S)-5-((S)-2-cyclopropyl-2-hydroxyacetyl)-6-((2-fluoro-[1,1′-biphenyl]-3-yl)methyl)-5-azaspiro[2.4]heptan-7-yl)-1,1-difluoromethanesulfonamide] | 1 to 10 nM | 90 to 100 | 
13 | CS(=O)(=O)N[C@@H]1[C@H](Cc2cccc(-c3ccccc3F)c2F)N(C(=O)[C@H]2CCO2)CC12CC2 [Compound 107, N-((6S,7S)-6-((2,2′-difluoro-[1,1′-biphenyl]-3-yl)methyl)-5-((R)-oxetane-2-carbonyl)-5-azaspiro[2.4]heptan-7-yl)methanesulfonamide] | 1 to 10 nM | 90 to 100 | 
14 | Cn1ccc(S(=O)(=O)N[C@@H]2[C@H](Cc3cccc(-c4ccccc4)c3)N(C(=O)[C@H]3CCO3)CC23CC3)n1 [Compound 72, N-((6S,7S)-6-([1,1′-biphenyl]-3-ylmethyl)-5-((R)-oxetane-2-carbonyl)-5-azaspiro[2.4]heptan-7-yl)-1-methyl-1H-pyrazole-3-sulfonamide] | 1 to 10 nM | 90 to 100 | 
15 | O=C(NCC(F)F)N1CC2(CC2)[C@H](NS(=O)(=O)C(F)F)[C@@H]1Cc1cc(F)cc(-c2cc(F)cc(F)c2)c1F [Compound 387] | 1 to 10 nM | 90 to 100 | 
16 | CCN(C)S(=O)(=O)N[C@@H]1[C@H](Cc2cccc(-c3ccccc3)c2)N(C(=O)[C@H]2CCO2)CC12CC2 [Compound 78, N-((6S,7S)-6-([1,1′-biphenyl]-3-ylmethyl)-5-((R)-oxetane-2-carbonyl)-5-azaspiro[2.4]heptan-7-yl)-N-methyl-N-ethylsulfuric diamide] | 10 to 100 nM | 90 to 100 | 
17 | CS(=O)(=O)NC1C(Cc2cccc(-c3ccccc3)c2)N(C(=O)C23CC2C3)CC12CC2 (racemic) [Compound 66, N-(6-([1,1′-biphenyl]-3-ylmethyl)-5-(bicyclo[1.1.0]butane-1-carbonyl)-5-azaspiro[2.4]heptan-7-yl)methanesulfonamide] | 10 to 100 nM | 90 to 100 | 
18 | CS(=O)(=O)N[C@H]1[C@@H](Cc2cccc(-c3cc(F)cc(F)c3)c2F)N(C(=O)N2CCC2)CC12CC2 [Compound 31, N-((6R,7R)-5-(azetidine-1-carbonyl)-6-((2,3′,5′-trifluoro-[1,1′-biphenyl]-3-yl)methyl)-5-azaspiro[2.4]heptan-7-yl)methanesulfonamide] | 10 to 100 nM | 90 to 100 | 
19 | CN(C)S(=O)(=O)N[C@@H]1[C@H](Cc2cccc(-c3ccccc3)c2F)N(C(=O)N2CCC2)CC12CC2 [Compound 116, N-((6S,7S)-5-(azetidine-1-carbonyl)-6-((2-fluoro-[1,1′-biphenyl]-3-yl)methyl)-5-azaspiro[2.4]heptan-7-yl)-N,N-dimethylsulfuric diamide] | 0.0794 to 1 nM |  | 90 to 100
20 | CS(=O)(=O)N[C@@H]1[C@H](Cc2cccc(-c3ccccc3)c2F)N(C(=O)NCCF)CC12CC2 [Compound 86, (6S,7S)-6-((2-fluoro-[1,1′-biphenyl]-3-yl)methyl)-N-(2-fluoroethyl)-7-(methylsulfonamido)-5-azaspiro[2.4]heptane-5-carboxamide] | 1 to 10 nM | 90 to 100 | 
21 | [2H]C([2H])([2H])N(C(=O)N1CC2(CC2)[C@H](NS(C)(=O)=O)[C@@H]1Cc1cccc(-c2ccccc2)c1F)C([2H])([2H])[2H] [Compound 345, (6S,7S)-6-((2-fluoro-[1,1′-biphenyl]-3-yl)methyl)-N,N-bis(methyl-d3)-7-(methylsulfonamido)-5-azaspiro[2.4]heptane-5-carboxamide] | 1 to 10 nM | 90 to 100 | 
22 | O=C([C@H]1CCCO1)N1CC2(CC2)[C@H](NS(=O)(=O)CF)[C@@H]1Cc1cccc(-c2ccccc2)c1F [Compound 401, 1-fluoro-N-((6S,7S)-6-((2-fluoro-[1,1′-biphenyl]-3-yl)methyl)-5-((R)-tetrahydrofuran-2-carbonyl)-5-azaspiro[2.4]heptan-7-yl)methanesulfonamide] | 1 to 10 nM | 90 to 100 | 
23 | COC1(CNC(=O)N2CC3(CC3)[C@H](NS(=O)(=O)C(F)F)[C@@H]2Cc2cccc(-c3ccccc3)c2F)CC1 [Compound 215, (6S,7S)-7-((difluoromethyl)sulfonamido)-6-((2-fluoro-[1,1′-biphenyl]-3-yl)methyl)-N-((1-methoxycyclopropyl)methyl)-5-azaspiro[2.4]heptane-5-carboxamide] | 0.0794 to 1 nM | 90 to 100 | 
24 | [2H]C([2H])([2H])c1cccc(-c2cccc(C[C@H]3[C@@H](NS(=O)(=O)C(F)F)C4(CC4)CN3C(=O)[C@H]3CCO3)c2F)c1 [Compound 199, 1,1-difluoro-N-((6S,7S)-6-((2-fluoro-3′-(methyl-d3)-[1,1′-biphenyl]-3-yl)methyl)-5-((R)-oxetane-2-carbonyl)-5-azaspiro[2.4]heptan-7-yl)methanesulfonamide] | 0.0794 to 1 nM | 90 to 100 | 
